This passage reports T/C and IC50 results from US10294237B2, “Bicyclic heterocyclic amide derivative” (Sumitomo Dainippon Pharma Co., Ltd., priority 2015, dated 2019).

The structures appear in SMILES notation.

Experiment [1] has as its system HCT-116 cells. Description: Anti-tumor effect to HCT-116 tumor-bearing mouse. The note with it: oral, administration period 17 days, nude mouse. Type of experiment: in vivo. From the text:
The present compound can be used to evaluate the anti-tumor effect thereof. A 4 to 7-week-old nude mouse (BALB/cAnNCrj-nu/nu, female, CHARLES RIVER LABORATORIES JAPAN, INC.) received intradermal transplantation of HCT-116 cells (ATCC) in an amount of 3×10^6 cells/mouse around the ventral portion. The engraftment of HCT-116 cells was observed 5 to 14 days after the transplantation, and then each compound suspended in a solvent such as 0.5% methylcellulose solution was orally administrated to the mouse in a dose of 1 to 100 mg/kg one to twice daily. The tumor volume was measured over time after the administration to evaluate the effect for reducing the tumor volume by the administration of each compound. The tumor volume can be calculated from the minor axis and the major axis of the tumor measured with a digital caliper (Mitutoyo) according to the following formula: Tumor volume [mm^3]=0.5×minor axis [mm]×(major axis [mm])^2
The tumor volume in control administration group treated with only a solvent such as 0.5% methylcellulose solution was compared with that of the present compound administration group, and T/C value was calculated according the following formula to evaluate the anti-tumor effect of the present compound. T/C(%)=(the tumor volume at the end of administration in the present compound administration group−the tumor volume at the start of administration in the present compound administration group)/(the tumor volume at the end of administration in the control administration group−the tumor volume at the start of administration in the control administration group)×100
The T/C values (%) of the present compound on each dosage and administration period in the HCT-116 tumor-bearing mouse are shown below.

For experiment [2], the system named is HCT-116 cells. Description: Test for inhibiting sphere-forming ability of cancer cells (in the presence of BSA). Particulars: HCT-116 spheres, non-adherent, 5% BSA, 4 days, CellTiter-Glo, read-out: IC50 (Sphere IC50 value; concentration for 50% inhibition of cell proliferation). The class given is cell-based. In general terms: Cellular ATP, detected with luciferase, serves as a proxy for viable cell number.

Experiment [3] relates to HCT-116 cells. Description: Test for inhibiting sphere-forming ability of cancer cells. Type of experiment: cell-based. The note with it: HCT-116 spheres, non-adherent, serum-free, 4 days, CellTiter-Glo, read-out: IC50 (Sphere IC50 value; concentration for 50% inhibition of cell proliferation).

Broadly, the T/C is the result in the treated group divided by that in the control group, in per cent. In general, IC50 refers to the concentration needed to halve the response being measured. In the experiment on HCT-116 cells [1] (dosage 30 mg/kg), `O=C(Nc1cn(Cc2cc(F)c(F)c(F)c2)cn1)c1ccc2c(c1)CCNC2` [Example 6, N-[1-(3,4,5-trifluorobenzyl)-1H-imidazol-4-yl]-1,2,3,4-tetrahydroisoquinoline-6-carboxamide] gave a T/C of 73%. For the same compound, the IC50 in the experiment on HCT-116 cells [2] stood at 0.05 µM; with HCT-116 cells [3], 0.06 µM.
As to `O=C(Nc1cc2c(cn1)CNCC2)c1cn(Cc2cc(F)c(F)c(F)c2)cn1` [Example 3, N-(5,6,7,8-tetrahydro-2,7-naphthyridin-3-yl)-1-(3,4,5-trifluorobenzyl)-1H-imidazole-4-carboxamide], the T/C with HCT-116 cells [1] (dosage 10 mg/kg) is given as 90%; in the experiment with HCT-116 cells [1] (dosage 30 mg/kg), 79%. Also, the IC50 worked out at 0.03 µM with HCT-116 cells [2] (Homo sapiens, HCT-116, 96 h) and 0.06 µM in the experiment on HCT-116 cells [3] (Homo sapiens, 96 h).
`O=C(Nc1cn(Cc2cccc(C(F)(F)F)c2)cn1)c1cnc2c(c1)CCNC2` [Example 13, N-{1-[3-(trifluoromethyl)benzyl]-1H-imidazol-4-yl}-5,6,7,8-tetrahydro-1,7-naphthyridine-3-carboxamide]: the T/C in the experiment on HCT-116 cells [1] (dosage 30 mg/kg) turned out to be 62%; in the experiment with HCT-116 cells [1] (dosage 100 mg/kg), 59%. In addition, the IC50 in the experiment with HCT-116 cells [2] (Homo sapiens, HCT-116, 96 h) amounted to 0.06 µM; in the experiment on HCT-116 cells [3] (Homo sapiens, 96 h), 0.03 µM.
In the same order, the values of `O=C(Nc1cn(Cc2cc(F)c(F)c(F)c2)cn1)c1ccc2c(n1)CCNC2` [Example 11, N-[1-(3,4,5-trifluorobenzyl)-1H-imidazol-4-yl]-5,6,7,8-tetrahydro-1,6-naphthyridine-2-carboxamide] are 62%, 46%, 0.05 µM and 0.05 µM.
The like results for `O=C(Nc1cn(Cc2cc(F)c(F)c(F)c2)cn1)c1cnc2c(c1)CCNC2` [Example 12, N-[1-(3,4,5-trifluorobenzyl)-1H-imidazol-4-yl]-5,6,7,8-tetrahydro-1,7-naphthyridine-3-carboxamide] were, in that order, 79%, 73%, 0.06 µM and 0.07 µM.
In the same order, the values of `O=C(Nc1cn(Cc2cc(F)c(F)c(F)c2)cn1)c1cc(F)c2c(c1)CCNC2` [Example 5, 8-fluoro-N-[1-(3,4,5-trifluorobenzyl)-1H-imidazol-4-yl]-1,2,3,4-tetrahydroisoquinoline-6-carboxamide] are 71%, 42%, 0.06 µM and 0.07 µM.
In the case of `O=C(Nc1cn(Cc2cccc(C(F)(F)F)c2)cn1)c1ccc2c(n1)CCNC2` [Example 10, N-{1-[3-(trifluoromethyl)benzyl]-1H-imidazol-4-yl}-5,6,7,8-tetrahydro-1,6-naphthyridine-2-carboxamide], the results for the T/C with HCT-116 cells [1] (dosage 30 mg/kg) and in the experiment with HCT-116 cells [1] (dosage 100 mg/kg) were 55% and 49%, respectively. Also, the IC50 with HCT-116 cells [2] (Homo sapiens, HCT-116, 96 h) stood at 0.05 µM; with HCT-116 cells [3] (Homo sapiens, 96 h) it was 0.04 µM.
